Assay results as given in ChEMBL document CHEMBL1201862, “PubChem BioAssay data set” (2004).
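Briefly, cells in 96-well plates were exposed to five compound concentrations for 48 h, and endpoints were estimated by linear interpolation. Abbreviation: GI50, concentration required for 50% inhibition of growth.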 Active and inactive are the calls of the source. No stated cut-off is given here; in the data, active = GI50 up to about 1.1 µM and inactive = higher. Bridge positions count the residues as written; N and C are the ends. Square brackets hold non-standard residues; d marks the D form. Peptide text beside a SMILES is read from it. * marks the point of attachment. Cbz = O=C(OCc1ccccc1)*; Dab = NCC[CH](N)C(=O)O; Bn = c1ccc(C*)cc1

Columns and labels:
Assay in all cases: growth of human tumour cells (NCI), 48 h
UO-31 = system: UO-31
DU-145 = system: DU-145
HCT-116 = system: HCT-116
RXF 393 = system: RXF 393
SK-OV-3 = system: SK-OV-3
CAKI-1 = system: CAKI-1
SK-MEL-5 = system: SK-MEL-5
SNB-19 = system: SNB-19
M14 = system: M14
MOLT-4 = system: MOLT-4
MCF7 = system: MCF7
MDA-MB-435 = system: MDA-MB-435
UACC-62 = system: UACC-62
U-251 = system: U-251
UACC-257 = system: UACC-257
Hs-578T = system: Hs-578T
HOP-92 = system: HOP-92
SW-620 = system: SW-620
SF-268 = system: SF-268
A549 = system: A549
TK-10 = system: TK-10
LOX IMVI = system: LOX IMVI
HOP-62 = system: HOP-62
NCI/ADR-RES = system: NCI/ADR-RES
OVCAR-3 = system: OVCAR-3
CCRF-CEM = system: CCRF-CEM
T47D = system: T47D
SK-MEL-28 = system: SK-MEL-28
RPMI-8226 = system: RPMI-8226
A498 = system: A498
SNB-75 = system: SNB-75
HCT-15 = system: HCT-15
K562 = system: K562
786-0 = system: 786-0
NCI-H226 = system: NCI-H226
SK-MEL-2 = system: SK-MEL-2
EKVX = system: EKVX
MDA-N = system: MDA-N
OVCAR-5 = system: OVCAR-5
SF-295 = system: SF-295
SF-539 = system: SF-539
HCC 2998 = system: HCC 2998
OVCAR-4 = system: OVCAR-4
PC-3 = system: PC-3
MDA-MB-231 = system: MDA-MB-231
SN12C = system: SN12C
KM12 = system: KM12
ACHN = system: ACHN
Malme-3M = system: Malme-3M
OVCAR-8 = system: OVCAR-8
COLO 205 = system: COLO 205
NCI-H23 = system: NCI-H23
HT-29 = system: HT-29
NCI-H460 = system: NCI-H460
HL-60 = system: HL-60
SR = system: SR
IGROV-1 = system: IGROV-1
NCI-H522 = system: NCI-H522

`CC1(C)[C@@H](Cn2nnc3c(N)ncnc32)CC[C@@]1(C)CO` was tested, and the GI50 (UO-31) was > 100 µM (inactive), the GI50 (DU-145) was > 100 µM (inactive) and the GI50 (HCT-116) was > 100 µM (inactive). The GI50 (RXF 393) was > 100 µM (inactive), the GI50 (SK-OV-3) was > 100 µM (inactive) and the GI50 (CAKI-1) was > 100 µM (inactive). For the same molecule, the GI50 (SK-MEL-5) was 55 µM (inactive), the GI50 (SNB-19) was > 100 µM (inactive) and the GI50 (M14) was > 100 µM (inactive). The GI50 (MOLT-4) was < 0.01 µM (active), the GI50 (MCF7) was > 100 µM (inactive) and the GI50 (MDA-MB-435) was > 100 µM (inactive). For the same molecule, the GI50 (UACC-62) was > 100 µM (inactive), the GI50 (U-251) was > 100 µM (inactive) and the GI50 (UACC-257) was > 100 µM (inactive). For the same molecule, the GI50 (Hs-578T) was > 100 µM (inactive), the GI50 (HOP-92) was > 100 µM (inactive) and the GI50 (SW-620) was > 100 µM (inactive). For the same molecule, the GI50 (SF-268) was > 100 µM (inactive), the GI50 (A549) was > 100 µM (inactive) and the GI50 (TK-10) was > 100 µM (inactive). For the same molecule, the GI50 (LOX IMVI) was > 100 µM (inactive), the GI50 (HOP-62) was > 100 µM (inactive) and the GI50 (NCI/ADR-RES) was > 100 µM (inactive). For the same molecule, the GI50 (OVCAR-3) was > 100 µM (inactive), the GI50 (CCRF-CEM) was > 100 µM (inactive) and the GI50 (T47D) was > 100 µM (inactive). The GI50 (SK-MEL-28) was > 100 µM (inactive), the GI50 (RPMI-8226) was > 100 µM (inactive) and the GI50 (A498) was > 100 µM (inactive). For the same molecule, the GI50 (SNB-75) was > 100 µM (inactive), the GI50 (HCT-15) was > 100 µM and the GI50 (K562) was > 100 µM (inactive). The GI50 (786-0) was > 100 µM (inactive), the GI50 (NCI-H226) was > 100 µM (inactive) and the GI50 (SK-MEL-2) was > 100 µM (inactive). For the same molecule, the GI50 (EKVX) was > 100 µM (inactive), the GI50 (MDA-N) was > 100 µM (inactive) and the GI50 (OVCAR-5) was > 100 µM (inactive). For the same molecule, the GI50 (SF-295) was > 100 µM (inactive), the GI50 (SF-539) was > 100 µM (inactive) and the GI50 (HCC 2998) was 12.6 µM (inactive). For the same molecule, the GI50 (OVCAR-4) was > 100 µM (inactive), the GI50 (PC-3) was > 100 µM (inactive) and the GI50 (MDA-MB-231) was > 100 µM (inactive). The GI50 (SN12C) was > 100 µM (inactive), the GI50 (KM12) was > 100 µM (inactive) and the GI50 (ACHN) was > 100 µM (inactive).
For `CSC(=S)N/N=C(\C)c1ccc(S(=O)(=O)N(C)c2ccccc2)cc1`, the GI50 (UO-31) was 15.7 µM (inactive), the GI50 (Malme-3M) was 2.07 µM (inactive) and the GI50 (DU-145) was > 100 µM (inactive). For the same molecule, the GI50 (HCT-116) was 14.3 µM (inactive), the GI50 (RXF 393) was 77.8 µM (inactive) and the GI50 (SK-OV-3) was 59.2 µM (inactive). The GI50 (CAKI-1) was 50.5 µM (inactive), the GI50 (SNB-19) was 26.4 µM (inactive) and the GI50 (M14) was 25.5 µM (inactive). For the same molecule, the GI50 (MOLT-4) was 19 µM (inactive), the GI50 (MCF7) was 18.2 µM (inactive) and the GI50 (MDA-MB-435) was 22.9 µM (inactive). The GI50 (UACC-62) was 43.2 µM (inactive), the GI50 (U-251) was 24.7 µM (inactive) and the GI50 (UACC-257) was 33.7 µM (inactive). The GI50 (Hs-578T) was 15.5 µM (inactive), the GI50 (HOP-92) was 23.8 µM (inactive) and the GI50 (SW-620) was 41.9 µM (inactive). The GI50 (SF-268) was 9.44 µM (inactive), the GI50 (A549) was 29.1 µM (inactive) and the GI50 (OVCAR-8) was 31.6 µM (inactive). The GI50 (TK-10) was > 100 µM (inactive), the GI50 (LOX IMVI) was 18.3 µM (inactive) and the GI50 (HOP-62) was 56.5 µM (inactive). The GI50 (NCI/ADR-RES) was 28.8 µM (inactive), the GI50 (OVCAR-3) was 16.7 µM (inactive) and the GI50 (COLO 205) was 68.4 µM (inactive). For the same molecule, the GI50 (T47D) was 66.5 µM (inactive), the GI50 (SK-MEL-28) was 34.8 µM (inactive) and the GI50 (RPMI-8226) was 27.8 µM (inactive). The GI50 (A498) was 89.7 µM (inactive), the GI50 (SNB-75) was 39.3 µM (inactive) and the GI50 (HCT-15) was 34.2 µM. The GI50 (K562) was 13.9 µM (inactive), the GI50 (786-0) was 34.4 µM (inactive) and the GI50 (NCI-H226) was 20.1 µM (inactive). For the same molecule, the GI50 (SK-MEL-2) was 35.3 µM (inactive), the GI50 (EKVX) was 21.8 µM (inactive) and the GI50 (MDA-N) was 30.3 µM (inactive). The GI50 (NCI-H23) was 19.1 µM (inactive), the GI50 (HT-29) was 26.1 µM (inactive) and the GI50 (OVCAR-5) was > 100 µM (inactive). For the same molecule, the GI50 (NCI-H460) was 5.13 µM (inactive), the GI50 (HL-60) was 6.5 µM (inactive) and the GI50 (SF-295) was 12.8 µM (inactive). For the same molecule, the GI50 (SF-539) was 48.3 µM (inactive), the GI50 (HCC 2998) was > 100 µM (inactive) and the GI50 (OVCAR-4) was 25.6 µM (inactive). The GI50 (PC-3) was 19.3 µM (inactive), the GI50 (SR) was 5.19 µM (inactive) and the GI50 (MDA-MB-231) was 98.4 µM (inactive). The GI50 (IGROV-1) was 3.5 µM (inactive), the GI50 (SN12C) was > 100 µM (inactive) and the GI50 (KM12) was 21.9 µM (inactive). For the same molecule, the GI50 (ACHN) was 22.6 µM (inactive).
With `CC(C)CC1NC(=O)C(Cc2ccccc2)NC(=O)C(Cc2ccccc2)NC(=O)C(NC(=O)C(Cc2ccc(OCc3ccccc3)cc2)NC(=O)OCc2ccccc2)CCNC1=O` (stereo unspecified) (Cbz-Y(Bn)[Dab]FFL; lactam 2-C; configuration not given here) the GI50 (Malme-3M) was 74.3 µM (inactive), the GI50 (DU-145) was > 100 µM (inactive) and the GI50 (HCT-116) was > 100 µM (inactive). For the same molecule, the GI50 (RXF 393) was > 100 µM (inactive), the GI50 (SK-OV-3) was > 100 µM (inactive) and the GI50 (CAKI-1) was > 100 µM (inactive). The GI50 (SK-MEL-5) was 76.4 µM (inactive), the GI50 (SNB-19) was > 100 µM (inactive) and the GI50 (M14) was 18.6 µM (inactive). The GI50 (MOLT-4) was 14.6 µM (inactive), the GI50 (MCF7) was 38.8 µM (inactive) and the GI50 (MDA-MB-435) was 30.4 µM (inactive). For the same molecule, the GI50 (UACC-62) was 8.47 µM (inactive), the GI50 (U-251) was 29.4 µM (inactive) and the GI50 (UACC-257) was 32.1 µM (inactive). For the same molecule, the GI50 (Hs-578T) was > 100 µM (inactive), the GI50 (HOP-92) was 40.2 µM (inactive) and the GI50 (SW-620) was > 100 µM (inactive). For the same molecule, the GI50 (SF-268) was > 100 µM (inactive), the GI50 (OVCAR-8) was > 100 µM (inactive) and the GI50 (TK-10) was 32.6 µM (inactive). For the same molecule, the GI50 (LOX IMVI) was > 100 µM (inactive), the GI50 (HOP-62) was > 100 µM (inactive) and the GI50 (NCI/ADR-RES) was > 100 µM (inactive). For the same molecule, the GI50 (OVCAR-3) was > 100 µM (inactive), the GI50 (CCRF-CEM) was 33.7 µM (inactive) and the GI50 (COLO 205) was > 100 µM (inactive). For the same molecule, the GI50 (T47D) was 20.4 µM (inactive), the GI50 (SK-MEL-28) was > 100 µM (inactive) and the GI50 (RPMI-8226) was > 100 µM (inactive). For the same molecule, the GI50 (HCT-15) was 41.3 µM, the GI50 (K562) was > 100 µM (inactive) and the GI50 (786-0) was 41.1 µM (inactive). The GI50 (NCI-H226) was > 100 µM (inactive), the GI50 (EKVX) was > 100 µM (inactive) and the GI50 (MDA-N) was 36.1 µM (inactive). The GI50 (NCI-H23) was 87.1 µM (inactive), the GI50 (HT-29) was > 100 µM (inactive) and the GI50 (OVCAR-5) was > 100 µM (inactive). For the same molecule, the GI50 (NCI-H522) was 23 µM (inactive), the GI50 (NCI-H460) was 35.1 µM (inactive) and the GI50 (HL-60) was > 100 µM (inactive). For the same molecule, the GI50 (SF-295) was > 100 µM (inactive), the GI50 (SF-539) was > 100 µM (inactive) and the GI50 (HCC 2998) was > 100 µM (inactive). For the same molecule, the GI50 (OVCAR-4) was 47.2 µM (inactive), the GI50 (PC-3) was 68.2 µM (inactive) and the GI50 (SR) was 63.1 µM (inactive). For the same molecule, the GI50 (MDA-MB-231) was 16.4 µM (inactive), the GI50 (IGROV-1) was 78.5 µM (inactive) and the GI50 (SN12C) was > 100 µM (inactive). The GI50 (KM12) was 64.7 µM (inactive) and the GI50 (ACHN) was > 100 µM (inactive).
